System: BPI
Details: confluent Caco2 intestinal epithelial monolayers, 1 μM, 24 hr, β actin internal standard (FIG. 5)

CC[C@@H](O)/C=C/C=C\C[C@@H](O)/C=C/C=C/C=C\[C@@H](O)CCCC(=O)O [5S,12R,18R-tri-HEPE]
fold induction of BPI mRNA: BPI induction

From patent US7741368B2, “Approach to antimicrobial host defense with molecular shields with EPA and DHA analogs” (The Brigham and Women's Hospital, Inc., priority 2001, dated 2010)
